According to the supplement of paper PMC13380429:

Tests used:
Details in all cases: 72 h
[1] = test system: Calu-3; assay: cell viability relative to DMSO; higher = less toxic
[2] = test system: Caco-2; assay: as above
[3] = test system: Vero E6; assay: as above
[4] = test system: HepG2; assay: as above
[5] = test system: U2OS; assay: as above
[6] = test system: Calu-3; assay: relative viability EC50 (midpoint between 100% and the lowest measured viability); higher = less toxic
[7] = test system: Vero E6; assay: as above
[8] = test system: HepG2; assay: as above
[9] = test system: U2OS; assay: as above
[10] = test system: Calu-3; assay: drug sensitivity score (DSS) for viability; higher = more toxic; extreme values may be limits of the assay
[11] = test system: Caco-2; assay: as above
[12] = test system: Vero E6; assay: as above
[13] = test system: HepG2; assay: as above
[14] = test system: U2OS; assay: as above
[15] = test system: Caco-2; assay: relative viability EC50 (midpoint between 100% and the lowest measured viability); higher = less toxic

SMILES: O=C(NOCCO)c1ccc2cncn2c1Nc1ccc(I)cc1F [GDC-0623]
- cell viability ([1]; 1 nM): 102%
- cell viability ([1]; 10 nM): 78.5%
- cell viability ([1]; 100 nM): 52.4%
- cell viability ([1]; 1000 nM): 36.4%
- cell viability ([1]; 10000 nM): 31.1%
- cell viability ([2]; 1 nM): 93.5%
- cell viability ([2]; 10 nM): 79.5%
- cell viability ([2]; 100 nM): 64.6%
- cell viability ([2]; 1000 nM): 61.8%
- cell viability ([2]; 10000 nM): 58.2%
- cell viability ([3]; 1 nM): 98.4%
- cell viability ([3]; 10 nM): 81.9%
- cell viability ([3]; 100 nM): 55.5%
- cell viability ([3]; 1000 nM): 49.9%
- cell viability ([3]; 10000 nM): 49.3%
- cell viability ([4]; 1 nM): 91.8%
- cell viability ([4]; 10 nM): 51.2%
- cell viability ([4]; 100 nM): 23.7%
- cell viability ([4]; 1000 nM): 19.6%
- cell viability ([4]; 10000 nM): 12.4%
- cell viability ([5]; 1 nM): 95.1%
- cell viability ([5]; 10 nM): 92.6%
- cell viability ([5]; 100 nM): 93.4%
- cell viability ([5]; 1000 nM): 62%
- cell viability ([5]; 10000 nM): 25.5%
- relative viability EC50 [6]: 0.034 µM
- relative viability EC50 [7]: 0.017 µM
- relative viability EC50 [8]: 0.0088 µM
- relative viability EC50 [9]: 0.916 µM
- drug sensitivity score [10]: 19.7
- drug sensitivity score [11]: 13.8
- drug sensitivity score [12]: 16.8
- drug sensitivity score [13]: 31.7
- drug sensitivity score [14]: 8.6

SMILES: O=[N+]([O-])c1cncn1CCN1CCOCC1 [nimorazole]
- cell viability ([1]; 1 nM): 102%
- cell viability ([1]; 10 nM): 105%
- cell viability ([1]; 100 nM): 94.6%
- cell viability ([1]; 1000 nM): 108%
- cell viability ([1]; 10000 nM): 93.9%
- cell viability ([2]; 1 nM): 102%
- cell viability ([2]; 10 nM): 107%
- cell viability ([2]; 100 nM): 94.8%
- cell viability ([2]; 1000 nM): 106%
- cell viability ([2]; 10000 nM): 96.3%
- cell viability ([4]; 1 nM): 118%
- cell viability ([4]; 10 nM): 112%
- cell viability ([4]; 100 nM): 97.2%
- cell viability ([4]; 1000 nM): 98.7%
- cell viability ([4]; 10000 nM): 117%
- relative viability EC50 [6]: > 10 µM
- relative viability EC50 [15]: > 10 µM
- relative viability EC50 [8]: > 10 µM
- drug sensitivity score [10]: 0
- drug sensitivity score [11]: 0
- drug sensitivity score [13]: 0

SMILES: CCCCCCOc1ccccc1C(N)=O [exalamide]
- cell viability ([1]; 1 nM): 106%
- cell viability ([1]; 10 nM): 115%
- cell viability ([1]; 100 nM): 107%
- cell viability ([1]; 1000 nM): 98.3%
- cell viability ([1]; 10000 nM): 113%
- cell viability ([3]; 1 nM): 110%
- cell viability ([3]; 10 nM): 105%
- cell viability ([3]; 100 nM): 102%
- cell viability ([3]; 1000 nM): 105%
- cell viability ([3]; 10000 nM): 86.9%
- cell viability ([4]; 1 nM): 110%
- cell viability ([4]; 10 nM): 96.1%
- cell viability ([4]; 100 nM): 95.9%
- cell viability ([4]; 1000 nM): 109%
- cell viability ([4]; 10000 nM): 90%
- cell viability ([5]; 1 nM): 95.6%
- cell viability ([5]; 10 nM): 92.7%
- cell viability ([5]; 100 nM): 101%
- cell viability ([5]; 1000 nM): 93.1%
- cell viability ([5]; 10000 nM): 94.3%
- relative viability EC50 [6]: > 10 µM
- relative viability EC50 [7]: > 10 µM
- relative viability EC50 [8]: > 10 µM
- relative viability EC50 [9]: > 10 µM
- drug sensitivity score [10]: 0
- drug sensitivity score [12]: 0
- drug sensitivity score [13]: 0
- drug sensitivity score [14]: 0

SMILES: CN1CCN(CC/C=C2/c3ccccc3Sc3ccc(S(=O)(=O)N(C)C)cc32)CC1 [thiothixene]
- cell viability ([1]; 1 nM): 96.4%
- cell viability ([1]; 10 nM): 102%
- cell viability ([1]; 100 nM): 119%
- cell viability ([1]; 1000 nM): 104%
- cell viability ([1]; 10000 nM): 77.6%
- cell viability ([2]; 1 nM): 107%
- cell viability ([2]; 10 nM): 104%
- cell viability ([2]; 100 nM): 103%
- cell viability ([2]; 1000 nM): 97.5%
- cell viability ([2]; 10000 nM): 71.4%
- cell viability ([3]; 1 nM): 99.5%
- cell viability ([3]; 10 nM): 108%
- cell viability ([3]; 100 nM): 97.2%
- cell viability ([3]; 1000 nM): 91.8%
- cell viability ([3]; 10000 nM): 88.1%
- cell viability ([4]; 1 nM): 94.2%
- cell viability ([4]; 10 nM): 102%
- cell viability ([4]; 100 nM): 104%
- cell viability ([4]; 1000 nM): 87.6%
- cell viability ([4]; 10000 nM): 73.3%
- cell viability ([5]; 1 nM): 95.7%
- cell viability ([5]; 10 nM): 97%
- cell viability ([5]; 100 nM): 95.6%
- cell viability ([5]; 1000 nM): 99.4%
- cell viability ([5]; 10000 nM): 84.5%
- relative viability EC50 [6]: > 10 µM
- relative viability EC50 [7]: > 10 µM
- relative viability EC50 [9]: > 10 µM
- drug sensitivity score [10]: 0.6
- drug sensitivity score [11]: 1.6
- drug sensitivity score [12]: 0.2
- drug sensitivity score [13]: 2.6
- drug sensitivity score [14]: 0.3

SMILES: CN1C[C@H](C(=O)N[C@]2(C)O[C@@]3(O)[C@@H]4CCCN4C(=O)[C@H](Cc4ccccc4)N3C2=O)C[C@@H]2c3cccc4[nH]cc(c34)C[C@H]21 [dihydroergotamine]
- cell viability ([1]; 1 nM): 102%
- cell viability ([1]; 10 nM): 96.9%
- cell viability ([1]; 100 nM): 96.3%
- cell viability ([1]; 1000 nM): 95.1%
- cell viability ([1]; 10000 nM): 114%
- cell viability ([2]; 1 nM): 102%
- cell viability ([2]; 10 nM): 98.3%
- cell viability ([2]; 100 nM): 108%
- cell viability ([2]; 1000 nM): 111%
- cell viability ([2]; 10000 nM): 99.7%
- cell viability ([4]; 1 nM): 109%
- cell viability ([4]; 10 nM): 113%
- cell viability ([4]; 100 nM): 105%
- cell viability ([4]; 1000 nM): 109%
- cell viability ([4]; 10000 nM): 97.3%
- relative viability EC50 [6]: > 10 µM
- relative viability EC50 [15]: > 10 µM
- relative viability EC50 [8]: > 10 µM
- drug sensitivity score [10]: 0
- drug sensitivity score [11]: 0
- drug sensitivity score [13]: 0

SMILES: CC(C)=CCC[C@](C)(O)[C@H]1CC[C@]2(C)[C@@H]1[C@H](O)C[C@@H]1[C@@]3(C)CC[C@H](O)C(C)(C)[C@@H]3CC[C@]12C [S-111]
- cell viability ([1]; 1 nM): 95.5%
- cell viability ([1]; 10 nM): 95.4%
- cell viability ([1]; 100 nM): 89.1%
- cell viability ([1]; 1000 nM): 97.2%
- cell viability ([1]; 10000 nM): 93%
- cell viability ([2]; 1 nM): 106%
- cell viability ([2]; 10 nM): 98.3%
- cell viability ([2]; 100 nM): 103%
- cell viability ([2]; 1000 nM): 104%
- cell viability ([2]; 10000 nM): 99.8%
- cell viability ([3]; 1 nM): 104%
- cell viability ([3]; 10 nM): 102%
- cell viability ([3]; 100 nM): 98.3%
- cell viability ([3]; 1000 nM): 105%
- cell viability ([3]; 10000 nM): 100%
- relative viability EC50 [6]: > 10 µM
- relative viability EC50 [15]: > 10 µM
- relative viability EC50 [7]: > 10 µM
- drug sensitivity score [10]: 0
- drug sensitivity score [11]: 0
- drug sensitivity score [12]: 0

SMILES: COc1cc([C@@H]2c3cc4c(cc3[C@@H](O[C@@H]3O[C@@H]5CO[C@@H](C)O[C@H]5[C@H](O)[C@H]3O)[C@H]3COC(=O)[C@H]23)OCO4)cc(OC)c1O [etoposide]
- cell viability ([1]; 1 nM): 83.1%
- cell viability ([1]; 10 nM): 92.5%
- cell viability ([1]; 100 nM): 90.4%
- cell viability ([1]; 1000 nM): 81.1%
- cell viability ([1]; 10000 nM): 40.7%
- cell viability ([2]; 1 nM): 93.5%
- cell viability ([2]; 10 nM): 97.1%
- cell viability ([2]; 100 nM): 92.2%
- cell viability ([2]; 1000 nM): 97.7%
- cell viability ([2]; 10000 nM): 54.2%
- cell viability ([3]; 1 nM): 104%
- cell viability ([3]; 10 nM): 105%
- cell viability ([3]; 100 nM): 103%
- cell viability ([3]; 1000 nM): 98.7%
- cell viability ([3]; 10000 nM): 80.2%
- cell viability ([4]; 1 nM): 111%
- cell viability ([4]; 10 nM): 85.2%
- cell viability ([4]; 100 nM): 96.3%
- cell viability ([4]; 1000 nM): 65.6%
- cell viability ([4]; 10000 nM): 43.1%
- cell viability ([5]; 1 nM): 100%
- cell viability ([5]; 10 nM): 104%
- cell viability ([5]; 100 nM): 99.9%
- cell viability ([5]; 1000 nM): 94.5%
- cell viability ([5]; 10000 nM): 46.1%
- relative viability EC50 [6]: 1.52 µM
- relative viability EC50 [7]: > 10 µM
- relative viability EC50 [8]: 0.701 µM
- relative viability EC50 [9]: 2.32 µM
- drug sensitivity score [10]: 5.3
- drug sensitivity score [11]: 2.7
- drug sensitivity score [12]: 0.7
- drug sensitivity score [13]: 7.2
- drug sensitivity score [14]: 3.8

SMILES: C=C(C)[C@@H]1CC[C@]2(CO)CC[C@]3(C)[C@H](CC[C@@H]4[C@@]5(C)CC[C@H](O)C(C)(C)[C@@H]5CC[C@]43C)[C@@H]12 [NSC-4644]
- cell viability ([1]; 1 nM): 103%
- cell viability ([1]; 10 nM): 103%
- cell viability ([1]; 100 nM): 102%
- cell viability ([1]; 1000 nM): 106%
- cell viability ([1]; 10000 nM): 90.3%
- cell viability ([2]; 1 nM): 101%
- cell viability ([2]; 10 nM): 73.1%
- cell viability ([2]; 100 nM): 75.8%
- cell viability ([2]; 1000 nM): 74.1%
- cell viability ([2]; 10000 nM): 91.1%
- cell viability ([3]; 1 nM): 84.1%
- cell viability ([3]; 10 nM): 95.4%
- cell viability ([3]; 100 nM): 96.3%
- cell viability ([3]; 1000 nM): 92%
- cell viability ([3]; 10000 nM): 106%
- cell viability ([4]; 1 nM): 112%
- cell viability ([4]; 10 nM): 99.1%
- cell viability ([4]; 100 nM): 96.1%
- cell viability ([4]; 1000 nM): 81.2%
- cell viability ([4]; 10000 nM): 89.8%
- cell viability ([5]; 1 nM): 96.6%
- cell viability ([5]; 10 nM): 95.6%
- cell viability ([5]; 100 nM): 103%
- cell viability ([5]; 1000 nM): 92%
- cell viability ([5]; 10000 nM): 98.4%
- relative viability EC50 [6]: > 10 µM
- relative viability EC50 [7]: > 10 µM
- relative viability EC50 [8]: > 10 µM
- relative viability EC50 [9]: > 10 µM
- drug sensitivity score [10]: 0
- drug sensitivity score [11]: 10.8
- drug sensitivity score [12]: 0
- drug sensitivity score [13]: 2.9
- drug sensitivity score [14]: 0
